In this experiment the target is T1, human GCGR (Homo sapiens, UniProt P47871).
T1 construct: expressed in transfected cells
The experiment in a line: cAMP activity assay, cells expressing human GCGR. Type of experiment: cell-based. The settings on record: ratio of human GCGR EC50 to human GLP1R EC50. The protocol:
Activity of the peptides at the Glucagon receptor (GCGR) and GLP-1 receptor (GLP1R) was measured in a cAMP activity assay. Peptides were dissolved in 100% DMSO and serially diluted to generate 10 point titrations. The peptide solutions were then transferred into 384-well assay plates (150 nL/well). Assay ready frozen cells expressing human GLP1R or human GCGR were suspended in growth media consisting of DMEM medium (GIBCO), 10% FBS (GIBCO), 1×NEAA(GIBCO), 1×P/S (GIBCO), 10 ug/ml Blasticidin (GIBCO) and 200 μg/mL Hygromycin (GIBCO). […] The cell suspensions (15 μL) were then added to the assay plates containing the peptide solutions (30,000 cells/well for human GCGR; 10,000 cells/well for human GLP1R). […] Production of cAMP was determined using […] kits (DiscoverX) following manufacturer protocol. The plates were incubated for overnight at room temperature in the dark. Luminescence was measured using an EnVision Multilabel plate reader (Perkin Elmer). Native GLP-1 and Glucagon (Bachem) are used as control peptides.

*1 amine or outer side, *2 acyl side, *3 side chain or, on linkers, in order; H or OH if unused. Where a SMILES comes first, the peptide text is derived from it. Bridges are numbered along the chain shown (N, C = ends). Side-chain parts run from the residue outwards. [ ]: non-standard residue; d: D form. The star is where a group is joined. γGlu = O=C(O)[C@H](CCC(=O)[*:2])N[*:1]; Palmitoyl = CCCCCCCCCCCCCCCC(=O)*; Nle = CCCC[C@H](N)C(=O)O; Aib = CC(C)(N)C(=O)O

T1 sequence (P47871 26-477): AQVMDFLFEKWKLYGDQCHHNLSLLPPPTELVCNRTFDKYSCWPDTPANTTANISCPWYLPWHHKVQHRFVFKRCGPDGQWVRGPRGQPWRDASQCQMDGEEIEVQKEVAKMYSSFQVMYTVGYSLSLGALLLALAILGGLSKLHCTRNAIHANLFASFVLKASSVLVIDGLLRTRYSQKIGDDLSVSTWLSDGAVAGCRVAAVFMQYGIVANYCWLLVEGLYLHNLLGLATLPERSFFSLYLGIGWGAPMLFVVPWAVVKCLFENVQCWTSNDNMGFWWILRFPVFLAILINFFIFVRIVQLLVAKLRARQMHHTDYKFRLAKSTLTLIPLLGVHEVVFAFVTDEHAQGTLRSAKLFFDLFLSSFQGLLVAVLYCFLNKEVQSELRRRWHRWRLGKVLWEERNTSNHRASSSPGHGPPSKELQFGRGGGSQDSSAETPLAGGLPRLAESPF

On to `CCCCCCCCCCCCCCCC(=O)N[C@@H](CCC(=O)N[C@@H](CCC(=O)NCCCC[C@H](NC(=O)[C@H](CC(=O)O)NC(=O)[C@H](CO)NC(=O)[C@@H](NC(=O)[C@H](Cc1ccccc1)NC(=O)[C@@H](NC(=O)CNC(=O)[C@H](CCC(N)=O)NC(=O)[C@@H](CO)NC(=O)[C@@H](N)Cc1c[nH]cn1)[C@@H](C)O)[C@@H](C)O)C(=O)N[C@@H](CO)C(=O)N[C@@H](CCCCN)C(=O)N[C@@H](Cc1ccc(O)cc1)C(=O)N[C@@H](CC(C)C)C(=O)N[C@@H](CC(=O)O)C(=O)N[C@@H](C)C(=O)N[C@@H](CCCNC(=N)N)C(=O)N[C@@H](C)C(=O)N[C@@H](C)C(=O)N[C@@H](CCC(N)=O)C(=O)N[C@@H](CC(=O)O)C(=O)N[C@@H](Cc1ccccc1)C(=O)N[C@H](C(=O)N[C@H]1CCCCNC(=O)CC[C@@H](C(=O)N[C@H](C(N)=O)[C@@H](C)O)NC(=O)[C@H](CC(C)C)NC(=O)[C@H](CC(C)C)NC(=O)[C@H](Cc2c[nH]c3ccccc23)NC1=O)C(C)C)C(=O)O)C(=O)O` [SEQ ID NO: 13] (H-H[dS]QGTFTSDK([γGlu-γGlu-Palmitoyl])SKYLDARAAQDFVKWLLET-NH2; lactam 24-28; N-terminus assumed), for which the “hGCGR/hGLPIR (hTone)” value came to 0.56. Under `CCCCCCCCCCCCCCCC(=O)N[C@@H](CCC(=O)N[C@@H](CCC(=O)NCCCC[C@H](NC(=O)[C@H](CC(=O)O)NC(=O)[C@H](CO)NC(=O)[C@@H](NC(=O)[C@H](Cc1ccccc1)NC(=O)[C@@H](NC(=O)CNC(=O)[C@H](CCC(N)=O)NC(=O)C(C)(C)NC(=O)[C@@H](N)Cc1c[nH]cn1)[C@@H](C)O)[C@@H](C)O)C(=O)N[C@@H](CO)C(=O)N[C@@H](CCCCN)C(=O)N[C@@H](Cc1ccc(O)cc1)C(=O)N[C@@H](CC(C)C)C(=O)N[C@@H](CC(=O)O)C(=O)N[C@H]1CCCCNC(=O)CC[C@@H](C(=O)N[C@@H](CC(=O)O)C(=O)N[C@@H](Cc2ccccc2)C(=O)N[C@H](C(=O)N[C@@H](CCC(N)=O)C(=O)N[C@@H](Cc2c[nH]c3ccccc23)C(=O)N[C@@H](CC(C)C)C(=O)N[C@@H](CCCC)C(=O)N[C@@H](CC(=O)O)C(=O)N[C@H](C(N)=O)[C@@H](C)O)C(C)C)NC(=O)[C@H](C)NC(=O)[C@H](C)NC(=O)[C@H](CCCNC(=N)N)NC1=O)C(=O)O)C(=O)O` [SEQ ID NO: 14] (H-H[Aib]QGTFTSDK([γGlu-γGlu-Palmitoyl])SKYLDKRAAEDFVQWL[Nle]DT-NH2; lactam 16-20; N-terminus assumed) stands 1.41; under `CCCCCCCCCCCCCCCC(=O)N[C@@H](CCC(=O)N[C@@H](CCC(=O)NCCCC[C@H](NC(=O)[C@H](CC(=O)O)NC(=O)[C@H](CO)NC(=O)[C@@H](NC(=O)[C@H](Cc1ccccc1)NC(=O)[C@@H](NC(=O)CNC(=O)[C@H](CCC(N)=O)NC(=O)C(C)(C)NC(=O)[C@@H](N)Cc1c[nH]cn1)[C@@H](C)O)[C@@H](C)O)C(=O)N[C@@H](CO)C(=O)N[C@@H](CCCCN)C(=O)N[C@@H](Cc1ccc(O)cc1)C(=O)N[C@@H](CC(C)C)C(=O)N[C@@H](CC(=O)O)C(=O)NC(C)(C)C(=O)N[C@@H](CCCNC(=N)N)C(=O)N[C@@H](C)C(=O)N[C@@H](C)C(=O)N[C@H]1CCCCNC(=O)CC[C@@H](C(=O)N[C@@H](Cc2c[nH]c3ccccc23)C(=O)N[C@@H](CC(C)C)C(=O)N[C@@H](CCCC)C(=O)N[C@@H](CC(=O)O)C(=O)N[C@H](C(N)=O)[C@@H](C)O)NC(=O)[C@H](C(C)C)NC(=O)[C@H](Cc2ccccc2)NC(=O)[C@H](CC(=O)O)NC1=O)C(=O)O)C(=O)O` [SEQ ID NO: 15] (H-H[Aib]QGTFTSDK([γGlu-γGlu-Palmitoyl])SKYLD[Aib]RAAKDFVEWL[Nle]DT-NH2; lactam 20-24; N-terminus assumed), 2.61.

(Values after patent US20230285514A1, “STAPLED LACTAM CO-AGONISTS OF THE GLUCAGON AND GLP-1 RECEPTORS” (Merck Sharp & Dohme LLC, priority 2019, published 2023).)
